Reference: ChEMBL document CHEMBL1275577, “Study of the in vitro activities of rifaximin and comparator agents against 536 anaerobic intestinal bacteria from the perspective of potential utility in pathology involving bowel flora” (Antimicrob Agents Chemother, 2009)
In brackets after ≈: the same amount, converted by molar mass.

How the values were obtained:
Prevotella intermedia = assay: Antimicrobial activity against Prevotella intermedia by Wadsworth agar dilution method; assay type: functional
Ruminococcus obeum = assay: Antimicrobial activity against Ruminococcus obeum by Wadsworth agar dilution method; assay type: functional; details: Blautia obeum
Bifidobacterium longum = assay: Antimicrobial activity against Bifidobacterium longum by Wadsworth agar dilution method; assay type: functional
Prevotella disiens = assay: Antimicrobial activity against Prevotella disiens by Wadsworth agar dilution method; assay type: functional
Propionibacterium avidum = assay: Antimicrobial activity against Propionibacterium avidum by Wadsworth agar dilution method; assay type: functional; details: Cutibacterium avidum
Clostridium beijerinckii = assay: Antimicrobial activity against Clostridium beijerinckii by Wadsworth agar dilution method; assay type: functional
[1] = test system: Bacteroides thetaiotaomicron; assay: Antimicrobial activity against Bacteroides thetaiotaomicron by Wadsworth agar dilution method; assay type: functional
Lactobacillus sp. = assay: Antimicrobial activity against Lactobacillus sp. by Wadsworth agar dilution method; assay type: functional
Bacteroides uniformis = assay: Antimicrobial activity against Bacteroides uniformis by Wadsworth agar dilution method; assay type: functional
[2] = test system: Lactobacillus acidophilus; assay: Antimicrobial activity against Lactobacillus acidophilus by Wadsworth agar dilution method; assay type: functional
[3] = test system: Parabacteroides distasonis; assay: Antimicrobial activity against Parabacteroides distasonis by Wadsworth agar dilution method; assay type: functional
[4] = test system: Clostridium acetobutylicum; assay: Antimicrobial activity against Clostridium acetobutylicum by Wadsworth agar dilution method; assay type: functional
[5] = Antimicrobial activity against Bifidobacterium infantis by Wadsworth agar dilution method; assay type: functional, Bifidobacterium longum subsp. infantis; details: Bifidobacterium longum
Bifidobacterium dentium = assay: Antimicrobial activity against Bifidobacterium dentium by Wadsworth agar dilution method; assay type: functional
Bacteroides fragilis = assay: Antimicrobial activity against Bacteroides fragilis by Wadsworth agar dilution method; assay type: functional
Fusobacterium mortiferum = assay: Antimicrobial activity against Fusobacterium mortiferum by Wadsworth agar dilution method in presence of beta-lactamase inhibitor Sulbactam; assay type: functional
[6] = test system: Coprobacillus cateniformis; assay: Antimicrobial activity against Coprobacillus cateniformis by Wadsworth agar dilution method; assay type: functional
Tissierella praeacuta = assay: Antimicrobial activity against Clostridium hastiforme by Wadsworth agar dilution method; assay type: functional
Eubacterium cylindroides = assay: Antimicrobial activity against Eubacterium cylindroides by Wadsworth agar dilution method; assay type: functional; details: Faecalitalea cylindroides
Eggerthella lenta = assay: Antimicrobial activity against Eggerthella lenta by Wadsworth agar dilution method; assay type: functional
[7] = test system: Bifidobacterium pseudolongum; assay: Antimicrobial activity against Bifidobacterium pseudolongum by Wadsworth agar dilution method; assay type: functional
Porphyromonas somerae = assay: Antimicrobial activity against Porphyromonas somerae by Wadsworth agar dilution method; assay type: functional
Schaalia meyeri = assay: Antimicrobial activity against Actinomyces meyeri by Wadsworth agar dilution method; assay type: functional
Clostridium sp. = assay: Antimicrobial activity against Clostridium sp. by Wadsworth agar dilution method; assay type: functional
[8] = test system: Paraclostridium bifermentans; assay: Antimicrobial activity against Clostridium bifermentans by Wadsworth agar dilution method; assay type: functional
Cutibacterium acnes = assay: Antimicrobial activity against Propionibacterium acnes by Wadsworth agar dilution method; assay type: functional
Bacteroides ovatus = assay: Antimicrobial activity against Bacteroides ovatus by Wadsworth agar dilution method; assay type: functional
Schaalia odontolytica = assay: Antimicrobial activity against Actinomyces odontolyticus by Wadsworth agar dilution method; assay type: functional
Desulfovibrio vulgaris = assay: Antimicrobial activity against Desulfovibrio vulgaris by Wadsworth agar dilution method; assay type: functional; details: Nitratidesulfovibrio vulgaris
Ruminococcus lactaris = assay: Antimicrobial activity against Ruminococcus lactaris by Wadsworth agar dilution method; assay type: functional
Clostridium bartlettii = assay: Antimicrobial activity against Clostridium bartlettii by Wadsworth agar dilution method; assay type: functional; details: Intestinibacter bartlettii
[9] = test system: Peptoniphilus asaccharolyticus; assay: Antimicrobial activity against Peptoniphilus asaccharolyticus by Wadsworth agar dilution method; assay type: functional
Clostridium glycolicum = assay: Antimicrobial activity against Clostridium glycolicum by Wadsworth agar dilution method; assay type: functional; details: Terrisporobacter glycolicus
Clostridioides difficile = assay: Antimicrobial activity against Clostridium difficile by Wadsworth agar dilution method; assay type: functional
Fusobacterium nucleatum = assay: Antimicrobial activity against Fusobacterium nucleatum by Wadsworth agar dilution method; assay type: functional
[10] = test system: Fusobacterium necrophorum; assay: Antimicrobial activity against Fusobacterium necrophorum by Wadsworth agar dilution method; assay type: functional
Eubacterium limosum = assay: Antimicrobial activity against Eubacterium limosum by Wadsworth agar dilution method; assay type: functional
Prevotella bivia = assay: Antimicrobial activity against Prevotella bivia by Wadsworth agar dilution method; assay type: functional
Ruminococcus gnavus = assay: Antimicrobial activity against Ruminococcus gnavus by Wadsworth agar dilution method; assay type: functional; details: Mediterraneibacter gnavus
Clostridium spiroforme = assay: Antimicrobial activity against Clostridium spiroforme by Wadsworth agar dilution method; assay type: functional; details: Thomasclavelia spiroformis
Clostridium septicum = assay: Antimicrobial activity against Clostridium septicum by Wadsworth agar dilution method; assay type: functional
Anaerococcus tetradius = assay: Antimicrobial activity against Anaerococcus tetradius by Wadsworth agar dilution method; assay type: functional
Clostridium subterminale = assay: Antimicrobial activity against Clostridium subterminale by Wadsworth agar dilution method; assay type: functional
Eubacterium rectale = assay: Antimicrobial activity against Eubacterium rectale by Wadsworth agar dilution method; assay type: functional; details: Agathobacter rectalis
Clostridium scindens = assay: Antimicrobial activity against Clostridium scindens by Wadsworth agar dilution method; assay type: functional
[11] = test system: Limosilactobacillus reuteri; assay: Antimicrobial activity against Lactobacillus reuteri by Wadsworth agar dilution method; assay type: functional
[12] = test system: Lactiplantibacillus plantarum; assay: Antimicrobial activity against Lactobacillus plantarum by Wadsworth agar dilution method; assay type: functional

NC[C@@H]1O[C@H](O[C@H]2[C@@H](O)[C@H](O[C@@H]3[C@@H](O)[C@H](N)C[C@H](N)[C@H]3O[C@H]3O[C@H](CN)[C@@H](O)[C@H](O)[C@H]3N)O[C@@H]2CO)[C@H](N)[C@@H](O)[C@@H]1O [FRAMYCETIN]
MIC50 (Prevotella intermedia): 512 µg/mL (≈ 833 µM)
MIC90 (Prevotella intermedia): 1020 µg/mL (≈ 1670 µM)
MIC50 (Ruminococcus obeum): 128 µg/mL (≈ 208 µM)
MIC90 (Ruminococcus obeum): 512 µg/mL (≈ 833 µM)
MIC50 (Bifidobacterium longum): 128 µg/mL (≈ 208 µM)
MIC90 (Bifidobacterium longum): 1020 µg/mL (≈ 1670 µM)
MIC50 (Prevotella disiens): 512 µg/mL (≈ 833 µM)
MIC90 (Prevotella disiens): 1020 µg/mL (≈ 1670 µM)
MIC50 (Propionibacterium avidum): 128 µg/mL (≈ 208 µM)
MIC90 (Propionibacterium avidum): 1020 µg/mL (≈ 1670 µM)
MIC50 (Clostridium beijerinckii): 256 µg/mL (≈ 416 µM)
MIC90 (Clostridium beijerinckii): 1020 µg/mL (≈ 1670 µM)
MIC50 [1]: > 1020 µg/mL
MIC90 [1]: > 1020 µg/mL
MIC50 (Lactobacillus sp.): 128 µg/mL (≈ 208 µM)
MIC90 (Lactobacillus sp.): 1020 µg/mL (≈ 1670 µM)
MIC50 (Bacteroides uniformis): > 1020 µg/mL
MIC90 (Bacteroides uniformis): > 1020 µg/mL
MIC50 [2]: 128 µg/mL (≈ 208 µM)
MIC90 [2]: 1020 µg/mL (≈ 1670 µM)
MIC50 [3]: 1020 µg/mL (≈ 1670 µM)
MIC90 [3]: > 1020 µg/mL
MIC50 [4]: 256 µg/mL (≈ 416 µM)
MIC90 [4]: 1020 µg/mL (≈ 1670 µM)
MIC50 [5]: 128 µg/mL (≈ 208 µM)
MIC90 [5]: 1020 µg/mL (≈ 1670 µM)
MIC50 (Bifidobacterium dentium): 128 µg/mL (≈ 208 µM)
MIC90 (Bifidobacterium dentium): 1020 µg/mL (≈ 1670 µM)
MIC50 (Bacteroides fragilis): > 1020 µg/mL
MIC90 (Bacteroides fragilis): > 1020 µg/mL
MIC50 (Fusobacterium mortiferum): 512 µg/mL
MIC90 (Fusobacterium mortiferum): > 1020 µg/mL
MIC50 [6]: 128 µg/mL (≈ 208 µM)
MIC90 [6]: 1020 µg/mL (≈ 1670 µM)
MIC50 (Tissierella praeacuta): 256 µg/mL (≈ 416 µM)
MIC90 (Tissierella praeacuta): 1020 µg/mL (≈ 1670 µM)
MIC50 (Eubacterium cylindroides): 128 µg/mL (≈ 208 µM)
MIC90 (Eubacterium cylindroides): 1020 µg/mL (≈ 1670 µM)
MIC50 (Eggerthella lenta): 128 µg/mL (≈ 208 µM)
MIC90 (Eggerthella lenta): 1020 µg/mL (≈ 1670 µM)
MIC50 [7]: 128 µg/mL (≈ 208 µM)
MIC90 [7]: 1020 µg/mL (≈ 1670 µM)
MIC50 (Porphyromonas somerae): 512 µg/mL (≈ 833 µM)
MIC90 (Porphyromonas somerae): > 1020 µg/mL
MIC50 (Schaalia meyeri): 128 µg/mL (≈ 208 µM)
MIC90 (Schaalia meyeri): 1020 µg/mL (≈ 1670 µM)
MIC50 (Clostridium sp.): 256 µg/mL (≈ 416 µM)
MIC90 (Clostridium sp.): 1020 µg/mL (≈ 1670 µM)
MIC50 [8]: 256 µg/mL (≈ 416 µM)
MIC90 [8]: 1020 µg/mL (≈ 1670 µM)
MIC50 (Cutibacterium acnes): 128 µg/mL (≈ 208 µM)
MIC90 (Cutibacterium acnes): 1020 µg/mL (≈ 1670 µM)
MIC50 (Bacteroides ovatus): > 1020 µg/mL
MIC90 (Bacteroides ovatus): > 1020 µg/mL
MIC50 (Schaalia odontolytica): 128 µg/mL (≈ 208 µM)
MIC90 (Schaalia odontolytica): 1020 µg/mL (≈ 1670 µM)
MIC50 (Desulfovibrio vulgaris): 256 µg/mL (≈ 416 µM)
MIC90 (Desulfovibrio vulgaris): 1020 µg/mL (≈ 1670 µM)
MIC50 (Ruminococcus lactaris): 128 µg/mL (≈ 208 µM)
MIC90 (Ruminococcus lactaris): 512 µg/mL (≈ 833 µM)
MIC50 (Clostridium bartlettii): 256 µg/mL (≈ 416 µM)
MIC90 (Clostridium bartlettii): 1020 µg/mL (≈ 1670 µM)
MIC50 [9]: 128 µg/mL (≈ 208 µM)
MIC90 [9]: 512 µg/mL (≈ 833 µM)
MIC50 (Clostridium glycolicum): 256 µg/mL (≈ 416 µM)
MIC90 (Clostridium glycolicum): 1020 µg/mL (≈ 1670 µM)
MIC50 (Clostridioides difficile): 256 µg/mL (≈ 416 µM)
MIC90 (Clostridioides difficile): 512 µg/mL (≈ 833 µM)
MIC50 (Fusobacterium nucleatum): 1020 µg/mL (≈ 1670 µM)
MIC90 (Fusobacterium nucleatum): 1020 µg/mL (≈ 1670 µM)
MIC50 [10]: 512 µg/mL (≈ 833 µM)
MIC90 [10]: > 1020 µg/mL
MIC50 (Eubacterium limosum): 128 µg/mL (≈ 208 µM)
MIC90 (Eubacterium limosum): 1020 µg/mL (≈ 1670 µM)
MIC50 (Prevotella bivia): 512 µg/mL (≈ 833 µM)
MIC90 (Prevotella bivia): 1020 µg/mL (≈ 1670 µM)
MIC50 (Ruminococcus gnavus): 128 µg/mL (≈ 208 µM)
MIC90 (Ruminococcus gnavus): 512 µg/mL (≈ 833 µM)
MIC50 (Clostridium spiroforme): 256 µg/mL (≈ 416 µM)
MIC90 (Clostridium spiroforme): 1020 µg/mL (≈ 1670 µM)
MIC50 (Clostridium septicum): 256 µg/mL (≈ 416 µM)
MIC90 (Clostridium septicum): 1020 µg/mL (≈ 1670 µM)
MIC50 (Anaerococcus tetradius): 128 µg/mL (≈ 208 µM)
MIC90 (Anaerococcus tetradius): 512 µg/mL (≈ 833 µM)
MIC50 (Clostridium subterminale): 256 µg/mL (≈ 416 µM)
MIC90 (Clostridium subterminale): 1020 µg/mL (≈ 1670 µM)
MIC50 (Eubacterium rectale): 128 µg/mL (≈ 208 µM)
MIC90 (Eubacterium rectale): 1020 µg/mL (≈ 1670 µM)
MIC50 (Clostridium scindens): 256 µg/mL (≈ 416 µM)
MIC90 (Clostridium scindens): 1020 µg/mL (≈ 1670 µM)
MIC50 [11]: 128 µg/mL (≈ 208 µM)
MIC90 [11]: 1020 µg/mL (≈ 1670 µM)
MIC50 [12]: 128 µg/mL (≈ 208 µM)
MIC90 [12]: 1020 µg/mL (≈ 1670 µM)
